Like-named read-outs stand apart in the source and are kept apart here.
Key:
Test in all cases: Test A preemergence
Assay type in all cases: in vivo
[1] = system: ragweed (common ragweed, Ambrosia elatior); settings: Ambrosia artemisiifolia, pre-emergence, 240 h; for pest or weed control at 125 g/ha: 125 g ai/ha; for pest or weed control at 500 g/ha: 500 g ai/ha
How it was run: (§1)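 Visual injury, scored on a 0–100 scale relative to untreated controls, was recorded about 10 d after application. Treatments were a preemergence soil spray over planted seeds or a postemergence spray on plants at the one- to two-leaf stage, 2 to 10 cm tall, all in loam soil–sand blend in the greenhouse.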

[2] = system: giant foxtail (Setaria faberii); settings: Setaria faberi, pre-emergence, 240 h; for pest or weed control at 125 g/ha: 125 g ai/ha; for pest or weed control at 500 g/ha: 500 g ai/ha
How it was run: as §1

[3] = system: barnyardgrass (Echinochloa crus-galli); settings: Echinochloa crus-galli, pre-emergence, 240 h; for pest or weed control at 125 g/ha: 125 g ai/ha; for pest or weed control at 500 g/ha: 500 g ai/ha
How it was run: as §1

[4] = system: Kochia (Kochia scoparia); settings: Bassia scoparia, pre-emergence, 240 h; for pest or weed control at 125 g/ha: 125 g ai/ha; for pest or weed control at 500 g/ha: 500 g ai/ha
How it was run: as §1

[5] = system: ryegrass, Italian (Italian ryegrass, Lolium multiflorum); settings: Lolium multiflorum, pre-emergence, 240 h; for pest or weed control at 125 g/ha: 125 g ai/ha; for pest or weed control at 500 g/ha: 500 g ai/ha
How it was run: as §1

[6] = preemergence, 0 to 100 scale where 0 is no effect and 100 is complete control, read-out: Ragweed plant response rating
[7] = Preemergence, visual injury vs untreated controls after approximately 10 d, read-out: Ragweed plant response rating (0 to 100 scale where 0 is no effect and 100 is complete control)
[8] = preemergence, 0 to 100 scale where 0 is no effect and 100 is complete control, read-out: Foxtail, Giant plant response rating
[9] = Preemergence, visual injury vs untreated controls after approximately 10 d, read-out: Foxtail, Giant plant response rating (0 to 100 scale where 0 is no effect and 100 is complete control)
[10] = preemergence, 0 to 100 scale where 0 is no effect and 100 is complete control, read-out: Barnyardgrass plant response rating
[11] = Preemergence, visual injury vs untreated controls after approximately 10 d, read-out: Barnyardgrass plant response rating (0 to 100 scale where 0 is no effect and 100 is complete control)
[12] = preemergence, 0 to 100 scale where 0 is no effect and 100 is complete control, read-out: Kochia plant response rating
[13] = Preemergence, visual injury vs untreated controls after approximately 10 d, read-out: Kochia plant response rating (0 to 100 scale where 0 is no effect and 100 is complete control)
[14] = preemergence, 0 to 100 scale where 0 is no effect and 100 is complete control, read-out: Ryegrass, Italian plant response rating
[15] = Preemergence, visual injury vs untreated controls after approximately 10 d, read-out: Ryegrass, Italian plant response rating (0 to 100 scale where 0 is no effect and 100 is complete control)
[16] = preemergence, 0 to 100 scale where 0 is no effect and 100 is complete control, approx. 10 d, read-out: Ragweed plant response rating
[17] = preemergence, 0 to 100 scale where 0 is no effect and 100 is complete control, approx. 10 d, read-out: Foxtail, Giant plant response rating
[18] = preemergence, 0 to 100 scale where 0 is no effect and 100 is complete control, approx. 10 d, read-out: Barnyardgrass plant response rating
[19] = preemergence, 0 to 100 scale where 0 is no effect and 100 is complete control, approx. 10 d, read-out: Kochia plant response rating
[20] = preemergence, 0 to 100 scale where 0 is no effect and 100 is complete control, approx. 10 d, read-out: Ryegrass, Italian plant response rating
[21] = preemergence, visual injury rating about 10 d after treatment, 0 to 100 scale (0 no effect, 100 complete control), read-out: Barnyardgrass plant response rating

Structure (SMILES) | pest or weed control at 125 g/ha [1, 6] [%] | pest or weed control at 500 g/ha [1, 7] [%] | pest or weed control at 125 g/ha [2, 8] [%] | pest or weed control at 500 g/ha [2, 9] [%] | pest or weed control at 125 g/ha [3, 10] [%] | pest or weed control at 500 g/ha [3, 11] [%] | pest or weed control at 125 g/ha [4, 12] [%] | pest or weed control at 500 g/ha [4, 13] [%] | pest or weed control at 125 g/ha [5, 14] [%] | pest or weed control at 500 g/ha [5, 15] [%] | other results
Cc1c(F)cccc1NC(=O)[C@H]1C(=O)NC[C@@H]1c1cccc(C(F)(F)F)c1 [Compound 826] | 20 | 80 | 100 | 100 | 90 | 100 | 70 | 90 | 70 | 80 | 
CSc1ccccc1NC(=O)[C@H]1C(=O)N(C)C[C@@H]1c1cccc(OC(F)(F)C(F)F)c1 [Compound 862] | 90 | 100 | 90 | 90 | 90 | 100 | 70 | 70 | 0 | 20 | 
Cc1c(F)ccc([C@H]2CN(C)C(=O)[C@@H]2C(=O)Nc2ccc(F)c(F)c2F)c1F [Compound 836] | 0 | 0 | 90 | 90 | 90 | 90 | 90 | 90 | 90 | 80 | 
O=C1NC[C@H](c2ccc3c(c2)CCCO3)[C@H]1C(=O)Nc1ccccc1F [Compound 885] | 0 | 0 | 50 | 80 | 70 | 90 | 0 | 0 | 0 | 20 | 
Cc1c(F)ccc([C@H]2CN(C)C(=O)[C@@H]2C(=O)Nc2ccccc2C(F)(F)F)c1F [Compound 841] | 0 | 0 | 90 | 90 | 90 | 100 | 40 | 60 | 0 | 40 | 
CN1CC[C@H](c2cccc(C(F)(F)F)c2)[C@@H](C(=O)Nc2cccc(F)c2Cl)C1=O [Compound 1158] |  |  |  |  |  |  |  |  |  |  | pest or weed control at 125 g/ha [1, 16]: 0%; pest or weed control at 500 g/ha [1, 6]: 0%; pest or weed control at 125 g/ha [2, 17]: 100%; pest or weed control at 500 g/ha [2, 8]: 100%; pest or weed control at 125 g/ha [3, 18]: 90%; pest or weed control at 500 g/ha [3, 10]: 100%; pest or weed control at 125 g/ha [4, 19]: 30%; pest or weed control at 500 g/ha [4, 12]: 30%; pest or weed control at 125 g/ha [5, 20]: 60%; pest or weed control at 500 g/ha [5, 14]: 70%
CN1C[C@H](c2cc(C(F)F)cs2)[C@@H](C(=O)Nc2cccc(F)c2F)C1=O [Compound 1121] |  |  |  |  |  |  |  |  |  |  | pest or weed control at 125 g/ha [1, 16]: 50%; pest or weed control at 500 g/ha [1, 6]: 100%; pest or weed control at 125 g/ha [2, 17]: 90%; pest or weed control at 500 g/ha [2, 8]: 100%; pest or weed control at 125 g/ha [3, 18]: 90%; pest or weed control at 500 g/ha [3, 21]: 100%; pest or weed control at 125 g/ha [4, 19]: 80%; pest or weed control at 500 g/ha [4, 12]: 100%; pest or weed control at 125 g/ha [5, 20]: 50%; pest or weed control at 500 g/ha [5, 14]: 60%
Cc1ccc([C@H]2CNC(=O)[C@@H]2C(=O)Nc2ccccc2S(C)(=O)=O)cc1C [Compound 1037] |  |  |  |  |  |  |  |  |  |  | pest or weed control at 125 g/ha ([1]; Preemergence, visual injury rating after approximately 10 d, read-out: Ragweed plant response rating (0 to 100 scale, 0 is no effect, 100 is complete control)): 0%; pest or weed control at 500 g/ha ([1]; preemergence, visual injury rating about 10 d after treatment, 0 to 100 scale (0 no effect, 100 complete control), read-out: Ragweed plant response rating): 60%; pest or weed control at 125 g/ha ([2]; Preemergence, visual injury rating after approximately 10 d, read-out: Foxtail, Giant plant response rating (0 to 100 scale, 0 is no effect, 100 is complete control)): 20%; pest or weed control at 500 g/ha ([2]; preemergence, visual injury rating about 10 d after treatment, 0 to 100 scale (0 no effect, 100 complete control), read-out: Foxtail, Giant plant response rating): 80%; pest or weed control at 125 g/ha ([3]; Preemergence, visual injury rating after approximately 10 d, read-out: Barnyardgrass plant response rating (0 to 100 scale, 0 is no effect, 100 is complete control)): 80%; pest or weed control at 500 g/ha [3, 21]: 90%; pest or weed control at 125 g/ha ([4]; Preemergence, visual injury rating after approximately 10 d, read-out: Kochia plant response rating (0 to 100 scale, 0 is no effect, 100 is complete control)): 40%; pest or weed control at 500 g/ha ([4]; preemergence, visual injury rating about 10 d after treatment, 0 to 100 scale (0 no effect, 100 complete control), read-out: Kochia plant response rating): 90%; pest or weed control at 125 g/ha ([5]; Preemergence, visual injury rating after approximately 10 d, read-out: Ryegrass, Italian plant response rating (0 to 100 scale, 0 is no effect, 100 is complete control)): 50%; pest or weed control at 500 g/ha ([5]; preemergence, visual injury rating about 10 d after treatment, 0 to 100 scale (0 no effect, 100 complete control), read-out: Ryegrass, Italian plant response rating): 70%
CN1C[C@H](c2cccc(COC(F)F)c2)[C@@H](C(=O)Nc2ccccc2S(C)(=O)=O)C1=O [Compound 877] | 0 | 60 | 90 | 90 | 90 | 100 | 60 | 80 | 0 | 20 | 

From patent publication US12077503B2, “Substituted cyclic amides and their use as herbicides” (FMC CORPORATION, priority 2015, dated 2024)
